Measured values published in patent publication US5817757A, “Inhibitors of peptide binding to MHO class II proteins” (Merck & Co., Inc., priority 1996, dated 1998).
Read-outs that look alike come from different tables or passages of the source.

Molecular target: T1, DR1Dw1 (Homo sapiens, UniProt P01903+P01911, A100R/D57E/F55L/F60I/F76Y/I96L/L162R/M171V/P40L/Q125E/R42F/V115G/Y59C)
T1 construct: these are Drosophila transmembrane DR; made in house; host or cells: Drosophila (cells)
Experiment: Inhibition of biotinylated RMBP 90-102 peptide binding to MHC class II DR1 (europium-streptavidin capture assay)
Description: In studies optimizing the assay it was determined that only between 5 to 10% of the DR molecules are capable of binding added peptide. Therefore, the effective concentration of DR1Dw1 and DR4Dw4 was approximately 0.125 and 1.0 nM, respectively. […] The DR-peptide complexes (50 μL) are transferred to wells of a 96-well EIA plate precoated with LB3.1, the monoclonal antibody which recognizes the DR alleles of MHC Class II, and blocked with PBS with fetal calf serum (FCS). An additional 50 μL of 50 mM Tris, pH 7.0, containing 0.75% octyl glucoside is added to each well and the mixture incubated overnight at 4° C. Excess peptide is removed by washing with PBS containing 0.05% Tween 20 (Polyoxyethylene sorbitan monolaurate) and 0.01% NaN3. Europium-labeled streptavidin (Wallac Inc.) is added and incubated overnight. After washing, complexes are measured by the addition of Enhance™ buffer, the tradename for 0.1M acetate phthalate buffer, pH 3.2, containing 0.1% Triton X-100, tradename for polyoxyethylene ethers and other surface active compounds of Union Carbide Chemicals and Plastics Co., Inc. (particularly, a non-ionic surfactant for recovery of membrane components under non-denaturing conditions) 15 μM 2-naphthoyltrifluoroacetone, and 50 μM tri-N-octylphosphine oxide, which buffer releases the chelated europium from streptavidin and forms a highly fluorescent micellar solution. The resultant fluorescence is measured using a fluorescent plate reader (e.g., DELPHIA, Wallac, Inc.). The data are analyzed using a four-parameter logistical curve […] program (e.g., SigmaPlot) that calculates the concentration of biotinylated peptide giving a half-maximal signal (ED50).
The inhibition assay format is identical to the procedure described above with the exception that the unlabeled antagonist is serially diluted and incubated with constant concentrations of biotinylated RMBP 90-102 (0.3 nM for DR1Dw1 or 0.9 nM for DR4Dw4) and the MHC class II proteins. The concentration of unlabeled compound that prevents 50% of the labeled peptide from binding is the IC50 value. The concentration of the biotinylated RMBP 90-102 in each assay is experimentally determined to be […] one-sixth of its measured ED50 to assure the inhibition was primarily measuring the binding characteristics of the competitor.
In particular, a protocol for carrying out the inhibition assay is given below.
Add 115 μL of 5μg/mL LB3.1 in 50 mM Tris HCl pH 9.6/azide to each well of a Costar EIA plate. Incubate the plate overnight at 4° C.
Wash the plate 4 times with water/0.05% Tween-20/azide. Add 200 μL of PBS /5% FCS/azide for 1 hour at 4° C. to block the plate. The plate may be held at this point for later use or used immediately.
Flip out the block. It is not necessary to wash the plate. At 50 μL of load buffer (50 mM Tris HCl, pH 8.0 0.75% octylglucoside). Add to this volume 50 μL of the reaction mix from day 2, step 3 below.
(1) Add the following to a polypropylene round bottom 96-well plate such as a Costar #3794:
(A) Diluent (Ca Mg free PBS adjusted to pH 6.5 with 0.1 M KH2 PO4/0.75% octylglucoside/azide).81 μL
(B) Competitor at 16.6 times the final concentration in diluent or diluent alone. 9 μL
(C) biotinylated rat myelin basic protein (BRMBP) 90-102; 1.5 nM for DR1 or 4.5 nM for DR4 (These are 5× stocks of final concentrations of 0.3 nM/DR1 or 0.9 nM/DR4) 30 μL
(D) 6.25 nM DR1Dw1 or 50 nM DR4Dw4 (these are Drosophila transmembrane DR) (This is a 5× stock of the final concentration of 1.25 or 10 nM.) 30 μL Add the DR last and mix well at this time 150 μL
(2) Incubate at 37° C. for 20 min and 5 hours.
(3) Add 50 μL of this reaction mixture to one well of the blocked antibody plate from day 2 above.
(4) Incubate overnight at 4° C. to capture the DR-peptide complexes.
(6) Add 125 μL of 100 ng/mL europium streptavidin (Wallac Inc.) in Ca Mg free PBS with 3.5 mg DTPA, 1.6 mL of 30% BSA/500 mL to each well.
(7) Incubate 2 to 4 hours at 4° C. […]

[1] = incubation at 37° C. for 20 min, 0.3 nM biotinylated RMBP 90-102, 1.25 nM DR1Dw1, pH 6.5, read-out: IC50 /μM @ 20'
[2] = incubation at 37° C. for 5 hours, 0.3 nM biotinylated RMBP 90-102, 1.25 nM DR1Dw1, pH 6.5, read-out: IC50 /μM @ 5h

| Molecule | IC50 [1] [µM] | IC50 [2] [µM] |
| --- | --- | --- |
| CCCC(NC(=O)C(C)(C)NCCCC1CCCCC1)C(=O)NC(CC(C)C)C(N)=O (stereo not drawn) [Example 2, N-α((2-Methyl-2-((3-cyclohexyl)propylamino))-propanoyl)-Nva-Leu-NH2] | 0.26 | 1.59 |
| CCCC(NC(=O)C(Cc1cccnc1)NCCCC1CCCCC1)C(=O)NC1CCCCNC1=O (stereo not shown) [Example 5] | 0.21 | 1.43 |
| CCCC(NC(=O)C(CCCCN)NC(=O)CC(C)c1ccccc1)C(=O)NC(CC(C)C)C(N)=O (stereo not drawn) [Example 34, α-[3R-methyl-3-phenylpropionyl]-Lys-Nva-Leu-NH2] | 0.16 | 1.25 |
| CCCC(NC(=O)C(CCCCN)NC(=O)CC(C)C1CCCCC1)C(=O)NC(CC(C)C)C(N)=O (stereo not drawn) [Example 36, α-[3R-methyl-3-cyclohexylpropionyl]-Lys-Nva-Leu-NH2] | 0.04 | 0.187 |
| CCCC(NC(=O)C(CCCCN)NCCCC1CCCCC1)C(=O)NC(CC(C)C)C(N)=O (stereo not drawn) [Example 40, α-[3-Cyclohexylpropyl]-Lys-Nva-Leu-NH2] | 0.0052 | 0.059 |
| CCCCN(NC(=O)C(CCC)NC(=O)C(CCCCN)NCC1CCc2ccccc2C1)C(=O)OCC (stereo not drawn) [Example 52, α-[1,2,3,4-tetrahydronaphthyl-2-methyl]-Lys-Nva-α-AzaNle-OEt] | 0.03 | 0.14 |
| α-[(1R,2S)-1-Cyclohexylcyclopropyl-1-carbonyl]-Lys-Nva-Leu-NH2 [Example 22] | 0.012 | 1.08 |

More lines, in order of falling IC50 [1], values ahead:

| IC50 [1] [µM] | IC50 [2] [µM] | Molecule |
| --- | --- | --- |
| 0.25 | 1.7 | CCC[C@H](NC(=O)[C@H](CCCCN)NC(=O)C=Cc1ccccc1C)C(=O)N[C@@H](CC(C)C)C(N)=O [Example 13, α-[2-methylcinnamoyl]-Lys-Nva-Leu-NH2] |
| 0.16 | 1.8 | α-[3-Phenylpropyl]-Lys-Nva-Leu-NH2 [Example 38] |
| 0.15 | 0.68 | CCCC(NC(=O)C(CCCCN)NCCCC1CCCCC1)C(=O)NN(CC(C)C)C(=O)OCC (stereo not drawn) [Example 48, α-[3 -Cyclohexylpropyl]-Lys-Nva-α-AzaLeu-OEt] |
| 0.046 | 0.26 | CCCCN(NC(=O)C(CCC)NC(=O)C(CCCCN)NCCCC1CCCCC1)C(=O)OCC (stereo not drawn) [Example 50, α-[3-Cyclohexylpropyl]-Lys-Nva-α-AzaNle-OEt] |
